Measurements taken from patent publication US9409952B2, “Peptide-compound cyclization method” (Chugai Seiyaku Kabushiki Kaisha, priority 2011, dated 2016).
Starred links: 1 amine or outer side, 2 acyl side, 3 side chain; linkers in the order of their positions; H or OH if unused. Positions of bridges follow the written chain, without caps; N, C: chain ends. Non-standard residues stand in square brackets, D forms with d. Residues, ends and D or L forms follow the SMILES beside them. *: point of attachment. NMeF = CN[C@@H](Cc1ccccc1)C(=O)O; NMeβAla = CN(CCC(=O)[*:2])[*:1]; NMeL = CN[C@@H](CC(C)C)C(=O)O; NMeV = CN[C@H](C(=O)O)C(C)C; NMeA = CN[C@@H](C)C(=O)O; Piperidide = C1CCN(*)CC1; dNMeA = CN[C@H](C)C(=O)O; Sar = CNCC(=O)O; tBu = CC(C)(C)*

How the values were obtained:
[1] = Metabolic stability in human hepatic microsome; assay type: in vitro ADME; details: microsomes, pH 7.4; human hepatic microsome, NADPH(+); read-out: CL NADPH(+)
[2] = PAMPA (parallel artificial membrane permeability assay); assay type: in vitro ADME; details: PAMPA; membrane permeation rate (Pe); 50 mM MOPSO buffer pH 6.5 with 5.0% glycocholic acid, 37° C., 18 hours; read-out: iPAMPA Pe
How it was run: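 Artificial membrane was 10% (w/v) egg lecithin plus 0.5% (w/v) cholesterol in dodecane on a PVDF filter. A 10 mM DMSO stock was added at 0.5% (v/v) to donor buffer (50 mM MOPSO, pH 6.5, 5.0% glycocholic acid). After 18 h at 37 °C, LC/MS or LC/UV gave donor and acceptor levels for Pe.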

SMILES	microsomal CLint at 1 uM [1]	Papp at 18 hours, 50 µM [2]
CC[C@H](C)[C@@H]1NC(=O)[C@H](Cc2ccccc2)N(C)C(=O)[C@H](CC(C)C)N(C)C(=O)[C@H](Cc2ccccc2)NC(=O)[C@H](C)N(C)C(=O)[C@H]([C@@H](C)O)NC(=O)CCN(C)C(=O)C[C@@H](C(=O)N2CCCCC2)NC(=O)[C@H](CC(C)C)N(C)C(=O)[C@H](C(C)C)N(C)C1=O [DP-427] ([NMeβAla]T[NMeA]F[NMeL][NMeF]I[NMeV][NMeL]D-Piperidide; lactam N-10)	141 µL/min/mg	37 ×10⁻⁶ cm/s
CC(C)C[C@H]1C(=O)N(C)[C@@H](CC(C)C)C(=O)N(C)[C@@H](CC(C)C)C(=O)N[C@H](C(=O)N2CCCCC2)CC(=O)N(C)CCC(=O)N(C)[C@@H](Cc2ccccc2)C(=O)N(C)[C@@H](CC(C)C)C(=O)N[C@@H]([C@@H](C)O)C(=O)N(C)[C@@H](C)C(=O)NCC(=O)N1C [DP-428] ([NMeβAla][NMeF][NMeL]T[NMeA]G[NMeL][NMeL][NMeL]D-Piperidide; lactam N-10)	77 µL/min/mg	26 ×10⁻⁶ cm/s
CC[C@H](C)[C@@H]1NC(=O)[C@H](CC(C)C)N(C)C(=O)[C@H](CC(C)C)N(C)C(=O)CCN(C)C(=O)C[C@@H](C(=O)N2CCCCC2)NC(=O)[C@H](CC(C)C)N(C)C(=O)[C@H](CC(C)C)N(C)C(=O)[C@H](Cc2ccccc2)N(C)C(=O)[C@H]([C@@H](C)O)NC(=O)[C@H](Cc2ccccc2)N(C)C1=O [DP-429] ([NMeβAla][NMeL][NMeL]I[NMeF]T[NMeF][NMeL][NMeL]D-Piperidide; lactam N-10)	115 µL/min/mg	15 ×10⁻⁶ cm/s
CC[C@H](C)[C@@H]1NC(=O)[C@H](CC(C)C)NC(=O)[C@H](Cc2ccccc2)NC(=O)CN(C)C(=O)[C@H](CC(C)C)NC(=O)[C@H](Cc2ccccc2)NC(=O)[C@@H](C)NC(=O)C[C@@H](C(=O)N2CCCCC2)NC(=O)[C@H]([C@@H](C)O)NC(=O)[C@H](Cc2ccccc2)NC1=O [DP-430] ([dA]FL[Sar]FLIFTD-Piperidide; lactam N-10)	96 µL/min/mg	32 ×10⁻⁶ cm/s
CC[C@H](C)[C@@H]1NC(=O)[C@H](CC(C)C)N(C)C(=O)[C@H](CC(C)C)NC(=O)[C@H](Cc2ccccc2)NC(=O)[C@H]([C@@H](C)O)NC(=O)[C@H](Cc2ccccc2)NC(=O)[C@@H](C)N(C)C(=O)C[C@@H](C(=O)N2CCCCC2)NC(=O)CNC(=O)[C@H](Cc2ccccc2)NC1=O [DP-431] ([dNMeA]FTFL[NMeL]IFGD-Piperidide; lactam N-10)	239 µL/min/mg	34 ×10⁻⁶ cm/s
CC[C@H](C)[C@@H]1NC(=O)[C@H](CC(C)C)N(C)C(=O)[C@H](Cc2ccccc2)NC(=O)[C@H]([C@@H](C)O)NC(=O)[C@H](CC(C)C)N(C)C(=O)[C@H](C(C)C)N(C)C(=O)[C@@H](C)N(C)C(=O)C[C@@H](C(=O)N2CCCCC2)NC(=O)[C@H](CC(C)C)NC(=O)[C@H](Cc2ccccc2)N(C)C1=O [DP-432] ([dNMeA][NMeV][NMeL]TF[NMeL]I[NMeF]LD-Piperidide; lactam N-10)	396 µL/min/mg	26 ×10⁻⁶ cm/s
CC[C@H](C)[C@@H]1NC(=O)CN(C)C(=O)[C@H]([C@@H](C)O)NC(=O)[C@H](C(C)C)N(C)C(=O)[C@@H](C)N(C)C(=O)C[C@@H](C(=O)N2CCCCC2)NC(=O)[C@H](CC(C)C)NC(=O)[C@H](Cc2ccccc2)N(C)C(=O)[C@H](CC(C)C)N(C)C(=O)[C@H](C)N(C)C1=O [DP-433] ([dNMeA][NMeV]T[Sar]I[NMeA][NMeL][NMeF]LD-Piperidide; lactam N-10)	35 µL/min/mg	45 ×10⁻⁶ cm/s
CC[C@H](C)[C@@H]1NC(=O)[C@H](Cc2ccccc2)N(C)C(=O)[C@H](CC(C)C)N(C)C(=O)[C@H](Cc2ccccc2)NC(=O)[C@H](C)N(C)C(=O)[C@H]([C@@H](C)O)NC(=O)[C@@H](C)N(C)C(=O)C[C@@H](C(=O)N2CCCCC2)NC(=O)[C@H](CC(C)C)N(C)C(=O)[C@H](C(C)C)N(C)C1=O [DP-434] ([dNMeA]T[NMeA]F[NMeL][NMeF]I[NMeV][NMeL]D-Piperidide; lactam N-10)	166 µL/min/mg	38 ×10⁻⁶ cm/s
CC(C)C[C@H]1C(=O)N(C)[C@@H](C)C(=O)N(C)[C@@H](CC(C)C)C(=O)N[C@H](C(=O)N2CCCCC2)CC(=O)N(C)[C@H](C)C(=O)N(C)[C@@H](Cc2ccccc2)C(=O)N[C@@H]([C@@H](C)O)C(=O)N(C)[C@@H](C)C(=O)N(C)[C@@H](CC(C)C)C(=O)NCC(=O)N1C [DP-435] ([dNMeA][NMeF]T[NMeA][NMeL]G[NMeL][NMeA][NMeL]D-Piperidide; lactam N-10)	41 µL/min/mg	16 ×10⁻⁶ cm/s
CC[C@H](C)[C@@H]1NC(=O)[C@H](Cc2ccccc2)NC(=O)[C@H](CC(C)C)NC(=O)CNC(=O)[C@H]([C@@H](C)O)NC(=O)[C@H](Cc2ccccc2)NC(=O)[C@H](C)N(C)C(=O)C[C@@H](C(=O)N2CCCCC2)NC(=O)[C@H](Cc2ccccc2)NC(=O)[C@H](CC(C)C)N(C)C1=O [DP-436] ([NMeA]FTGLFI[NMeL]FD-Piperidide; lactam N-10)	142 µL/min/mg	45 ×10⁻⁶ cm/s
CC(C)C[C@@H]1NC(=O)[C@H](Cc2ccccc2)N(C)C(=O)CNC(=O)[C@H]([C@@H](C)O)NC(=O)[C@H](CC(C)C)N(C)C(=O)[C@H](COC(C)(C)C)NC(=O)[C@H](C)N(C)C(=O)C[C@@H](C(=O)N2CCCCC2)NC(=O)[C@H](Cc2ccccc2)NC(=O)[C@H](CC(C)C)N(C)C1=O [DP-437] ([NMeA]S(tBu)[NMeL]TG[NMeF]L[NMeL]FD-Piperidide; lactam N-10)	265 µL/min/mg	37 ×10⁻⁶ cm/s
CC(C)C[C@H]1C(=O)N(C)[C@@H](Cc2ccccc2)C(=O)N[C@@H](Cc2ccccc2)C(=O)N(C)[C@@H](C)C(=O)N(C)[C@@H](C(C)C)C(=O)N[C@@H]([C@@H](C)O)C(=O)N[C@H](C(=O)N2CCCCC2)CC(=O)N(C)[C@@H](C)C(=O)N[C@@H](COC(C)(C)C)C(=O)NCC(=O)N1C [DP-438] ([NMeA]S(tBu)G[NMeL][NMeF]F[NMeA][NMeV]TD-Piperidide; lactam N-10)	155 µL/min/mg	38 ×10⁻⁶ cm/s
CC[C@H](C)[C@@H]1NC(=O)[C@H](CC(C)C)N(C)C(=O)[C@H](CC(C)C)N(C)C(=O)[C@H](C)N(C)C(=O)[C@H]([C@@H](C)O)NC(=O)[C@H](C(C)C)N(C)C(=O)[C@H](Cc2ccccc2)NC(=O)CN(C)C(=O)[C@H](C)N(C)C(=O)C[C@@H](C(=O)N2CCCCC2)NC1=O [DP-439] ([NMeA][Sar]F[NMeV]T[NMeA][NMeL][NMeL]ID-Piperidide; lactam N-10)	139 µL/min/mg	34 ×10⁻⁶ cm/s
CC[C@H](C)[C@@H]1NC(=O)CN(C)C(=O)[C@H]([C@@H](C)O)NC(=O)[C@H](CC(C)C)N(C)C(=O)[C@H](Cc2ccccc2)N(C)C(=O)CCN(C)C(=O)C[C@@H](C(=O)N2CCCCC2)NC(=O)[C@H](CC(C)C)N(C)C(=O)[C@H](CC(C)C)N(C)C1=O [DP-440] ([NMeβAla][NMeF][NMeL]T[Sar]I[NMeL][NMeL]D-Piperidide; lactam N-9)	124 µL/min/mg	29 ×10⁻⁶ cm/s
CC(C)C[C@@H]1NC(=O)[C@H](Cc2ccccc2)N(C)C(=O)[C@H](CC(C)C)N(C)C(=O)[C@@H](C)N(C)C(=O)C[C@@H](C(=O)N2CCCCC2)NC(=O)[C@H](CC(C)C)N(C)C(=O)[C@H](Cc2ccccc2)N(C)C(=O)[C@H]([C@@H](C)O)NC(=O)[C@H](Cc2ccccc2)N(C)C1=O [DP-441] ([dNMeA][NMeL][NMeF]L[NMeF]T[NMeF][NMeL]D-Piperidide; lactam N-9)	123 µL/min/mg	37 ×10⁻⁶ cm/s
CC(C)C[C@@H]1NC(=O)[C@H](CC(C)C)N(C)C(=O)[C@H](C)N(C)C(=O)C[C@@H](C(=O)N2CCCCC2)NC(=O)[C@H](CC(C)C)N(C)C(=O)[C@H](Cc2ccccc2)N(C)C(=O)[C@H](Cc2ccccc2)N(C)C(=O)[C@H]([C@@H](C)O)NC(=O)[C@H](Cc2ccccc2)N(C)C1=O [DP-442] ([NMeA][NMeL]L[NMeF]T[NMeF][NMeF][NMeL]D-Piperidide; lactam N-9)	159 µL/min/mg	38 ×10⁻⁶ cm/s
CC(C)C[C@H]1C(=O)N(C)[C@@H](C)C(=O)N[C@H](C(=O)N(C)[C@@H](Cc2ccccc2)C(=O)N[C@@H](C)C(=O)N2CCCCC2)CC(=O)N(C)[C@H](C)C(=O)N(C)[C@@H](C)C(=O)N[C@@H](C)C(=O)N(C)[C@@H](Cc2ccccc2)C(=O)N(C)[C@@H](C)C(=O)N(C)[C@@H](Cc2ccccc2)C(=O)N[C@@H]([C@@H](C)O)C(=O)N(C)[C@@H](C)C(=O)N1C [DP-443] ([dNMeA][NMeA]A[NMeF][NMeA][NMeF]T[NMeA][NMeL][NMeA]D[NMeF]A-Piperidide; lactam N-11)	17 µL/min/mg	9.1 ×10⁻⁶ cm/s
CC(C)C[C@H]1C(=O)N(C)[C@@H](C)C(=O)N[C@@H]([C@@H](C)O)C(=O)N(C)[C@@H](C)C(=O)N(C)[C@@H](Cc2ccccc2)C(=O)N(C)[C@@H](C)C(=O)N[C@@H](C)C(=O)N(C)[C@@H](C)C(=O)N(C)[C@@H](C)C(=O)N[C@H](C(=O)N(C)[C@@H](Cc2ccccc2)C(=O)N[C@@H](C)C(=O)N2CCCCC2)CC(=O)N(C)[C@H](C)C(=O)N1C [DP-444] ([dNMeA][NMeL][NMeA]T[NMeA][NMeF][NMeA]A[NMeA][NMeA]D[NMeF]A-Piperidide; lactam N-11)	3 µL/min/mg	0.72 ×10⁻⁶ cm/s
CC(C)C[C@H]1C(=O)N(C)[C@@H](C)C(=O)N(C)[C@@H](Cc2ccccc2)C(=O)N[C@@H]([C@@H](C)O)C(=O)N(C)[C@@H](C)C(=O)N(C)[C@@H](Cc2ccccc2)C(=O)N(C)[C@@H](C)C(=O)N[C@H](C(=O)N(C)[C@@H](Cc2ccccc2)C(=O)N[C@@H](C)C(=O)N2CCCCC2)CC(=O)N(C)[C@@H](C)C(=O)N[C@@H](C)C(=O)N(C)[C@@H](C)C(=O)N1C [DP-445] ([NMeA]A[NMeA][NMeL][NMeA][NMeF]T[NMeA][NMeF][NMeA]D[NMeF]A-Piperidide; lactam N-11)	14 µL/min/mg	11 ×10⁻⁶ cm/s
